± gives the standard deviation of the averaged measurements.
Legend:
DECITABINE = compound: Nc1ncn([C@H]2C[C@H](O)[C@@H](CO)O2)c(=O)n1 [DECITABINE]; test: surviving fraction relative to DMSO-only wells; higher = less growth inhibition; conditions: exposure time: 5 days
In short: (§1)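 Tumour cell lines in log phase were plated in 384-well plates at 250–500 cells per well, then, after 24 hours, exposed continuously for five days to inhibitors at 0.5, 1, 5, 10, 50, 100, 500 and 1000 nM. Viability came from CellTiter-Glo luminescence, and surviving fraction is that signal normalised to the median of DMSO-only wells. Plates were read after 10 minutes at room temperature, and each line, screened three times, was kept only when replicate Pearson r was >0.7 and median Z' was >0.3.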

[1] = compound: CCN(CC)CCCCNc1ncc2cc(-c3cc(OC)cc(OC)c3)c(NC(=O)NC(C)(C)C)nc2n1; test: as above; conditions: exposure time: 5 days
In short: as §1

Test System | surviving fraction (DECITABINE; 0.5 nM) | surviving fraction (DECITABINE; 1 nM) | surviving fraction (DECITABINE; 5 nM) | surviving fraction (DECITABINE; 10 nM) | surviving fraction (DECITABINE; 50 nM) | surviving fraction (DECITABINE; 100 nM) | surviving fraction (DECITABINE; 500 nM) | surviving fraction (DECITABINE; 1000 nM) | surviving fraction ([1]; 0.5 nM) | surviving fraction ([1]; 1 nM) | surviving fraction ([1]; 5 nM) | surviving fraction ([1]; 10 nM) | surviving fraction ([1]; 50 nM) | surviving fraction ([1]; 100 nM) | surviving fraction ([1]; 500 nM) | surviving fraction ([1]; 1000 nM)
S68 BREAST | 0.828 ± 0.28 | 0.903 ± 0.17 | 1.15 ± 0.28 | 1.13 ± 0.24 | 0.697 ± 0.21 | 0.926 ± 0.2 | 0.541 ± 0.13 | 0.445 ± 0.013 | 0.948 ± 0.29 | 1.01 ± 0.22 | 1.285 ± 0.0036 | 0.836 ± 0.1 | 1.02 ± 0.06 | 1.11 ± 0.3 | 0.864 ± 0.18 | 0.81 ± 0.22
SKBR3 BREAST | 1.02 ± 0.11 | 1.12 ± 0.0031 | 1.13 ± 0.035 | 0.959 ± 0.042 | 1.03 ± 0.094 | 1 ± 0.1 | 0.996 ± 0.017 | 0.931 ± 0.089 | 0.9 ± 0.11 | 0.967 ± 0.072 | 0.975 ± 0.22 | 0.851 ± 0.057 | 0.979 ± 0.13 | 0.992 ± 0.077 | 1 ± 0.05 | 0.848 ± 0.13
BT20 BREAST | 1.24 ± 0.16 | 1.14 ± 0.086 | 1.33 ± 0.072 | 1.28 ± 0.12 | 1.46 ± 0.037 | 1.33 ± 0.073 | 1.1 ± 0.075 | 0.844 ± 0.069 | 1.17 ± 0.13 | 1.17 ± 0.065 | 1.09 ± 0.26 | 1.17 ± 0.09 | 1.17 ± 0.12 | 1.12 ± 0.029 | 1.53 ± 0.17 | 1.64 ± 0.057
JIMT1 BREAST | 1.04 ± 0.021 | 0.999 ± 0.032 | 1 ± 0.018 | 0.9743 ± 0.0064 | 0.933 ± 0.038 | 0.819 ± 0.048 | 0.546 ± 0.036 | 0.471 ± 0.03 | 0.964 ± 0.028 | 0.951 ± 0.04 | 0.967 ± 0.054 | 1.01 ± 0.037 | 1.02 ± 0.011 | 1.03 ± 0.042 | 0.989 ± 0.031 | 1.02 ± 0.025
HCC1954 BREAST | 1.07 ± 0.19 | 1.05 ± 0.13 | 1.32 ± 0.13 | 1.32 ± 0.05 | 1.13 ± 0.13 | 1.22 ± 0.023 | 1.29 ± 0.044 | 1.08 ± 0.044 | 1.01 ± 0.021 | 1.04 ± 0.04 | 0.945 ± 0.058 | 1.11 ± 0.051 | 1.08 ± 0.041 | 1.04 ± 0.2 | 0.829 ± 0.072 | 0.951 ± 0.11
VP229 BREAST | 1.09 ± 0.062 | 1.13 ± 0.093 | 0.996 ± 0.13 | 0.952 ± 0.11 | 0.966 ± 0.067 | 0.959 ± 0.028 | 0.871 ± 0.056 | 0.798 ± 0.097 | 1.15 ± 0.079 | 1.09 ± 0.031 | 1.1 ± 0.12 | 1.11 ± 0.028 | 1.22 ± 0.12 | 1.11 ± 0.13 | 1.22 ± 0.061 | 1.15 ± 0.11
NOS1 BONE | 1.07 ± 0.099 | 0.872 ± 0.046 | 1.28 ± 0.055 | 0.989 ± 0.08 | 1.09 ± 0.043 | 0.992 ± 0.074 | 0.977 ± 0.22 | 0.816 ± 0.031 | 1.11 ± 0.046 | 1.19 ± 0.1 | 1.15 ± 0.094 | 1.08 ± 0.056 | 0.989 ± 0.16 | 0.965 ± 0.11 | 0.609 ± 0.046 | 0.37 ± 0.05
SG31 HEADNECK | 1.27 ± 0.12 | 1.2 ± 0.059 | 1.14 ± 0.083 | 1.13 ± 0.1 | 1.08 ± 0.04 | 0.952 ± 0.11 | 1.01 ± 0.13 | 0.909 ± 0.095 | 1.04 ± 0.055 | 0.949 ± 0.11 | 0.934 ± 0.15 | 0.932 ± 0.12 | 0.845 ± 0.12 | 0.997 ± 0.051 | 0.934 ± 0.069 | 0.934 ± 0.1
OS25HAL BONE | 1.01 ± 0.024 | 0.9963 ± 0.0074 | 1.08 ± 0.033 | 1.07 ± 0.011 | 1.19 ± 0.034 | 1.22 ± 0.034 | 1.047 ± 0.01 | 0.921 ± 0.055 | 0.969 ± 0.0072 | 0.983 ± 0.023 | 0.973 ± 0.0036 | 1 ± 0.025 | 1 ± 0.0091 | 1 ± 0.013 | 0.979 ± 0.0085 | 1.03 ± 0.03
22RV1 PROSTATE | 1.01 ± 0.024 | 0.935 ± 0.23 | 0.964 ± 0.19 | 0.897 ± 0.19 | 0.881 ± 0.27 | 0.801 ± 0.16 | 0.614 ± 0.17 | 0.509 ± 0.15 | 1 ± 0.029 | 1.02 ± 0.048 | 0.964 ± 0.011 | 1.01 ± 0.013 | 0.997 ± 0.034 | 1.02 ± 0.044 | 1.04 ± 0.04 | 1.05 ± 0.036
KPD BONE | 0.916 ± 0.057 | 0.919 ± 0.053 | 0.801 ± 0.022 | 0.692 ± 0.056 | 0.534 ± 0.023 | 0.464 ± 0.012 | 0.379 ± 0.026 | 0.353 ± 0.044 | 0.978 ± 0.07 | 1.02 ± 0.033 | 1 ± 0.049 | 1.01 ± 0.12 | 1.02 ± 0.039 | 0.97 ± 0.058 | 0.925 ± 0.025 | 0.884 ± 0.058
HUO3N1 BONE | 0.958 ± 0.022 | 0.99 ± 0.024 | 1.03 ± 0.056 | 1.05 ± 0.019 | 1.04 ± 0.022 | 1 ± 0.014 | 0.901 ± 0.017 | 0.879 ± 0.025 | 0.996 ± 0.074 | 0.993 ± 0.047 | 1.04 ± 0.052 | 0.999 ± 0.043 | 0.9503 ± 0.0051 | 0.906 ± 0.055 | 0.727 ± 0.04 | 0.69 ± 0.013
OSHN BONE | 1.08 ± 0.015 | 1.06 ± 0.028 | 1.11 ± 0.024 | 1.07 ± 0.032 | 1.17 ± 0.03 | 1.17 ± 0.017 | 1.22 ± 0.022 | 1.112 ± 0.0035 | 1 ± 0.016 | 1.01 ± 0.017 | 1.01 ± 0.024 | 1.03 ± 0.033 | 0.993 ± 0.023 | 1.01 ± 0.033 | 1.02 ± 0.035 | 1.04 ± 0.042
C33A CERVIX | 0.969 ± 0.043 | 0.941 ± 0.064 | 0.963 ± 0.045 | 1.06 ± 0.036 | 0.9227 ± 0.0078 | 0.909 ± 0.075 | 0.697 ± 0.1 | 0.685 ± 0.082 | 0.832 ± 0.044 | 0.831 ± 0.077 | 0.921 ± 0.068 | 0.914 ± 0.1 | 0.968 ± 0.1 | 0.871 ± 0.12 | 0.828 ± 0.073 | 0.814 ± 0.065
SUM149 BREAST | 1.11 ± 0.11 | 1.03 ± 0.13 | 0.845 ± 0.047 | 0.807 ± 0.09 | 0.366 ± 0.0027 | 0.359 ± 0.022 | 0.261 ± 0.0076 | 0.245 ± 0.012 | 0.881 ± 0.14 | 1.12 ± 0.057 | 0.998 ± 0.037 | 1.21 ± 0.049 | 1.03 ± 0.069 | 1.1 ± 0.13 | 1.01 ± 0.056 | 1.08 ± 0.14
ASKA SYNOVIAL | 1.04 ± 0.07 | 1.01 ± 0.085 | 1.04 ± 0.026 | 1.03 ± 0.043 | 1.03 ± 0.067 | 0.952 ± 0.079 | 0.711 ± 0.075 | 0.6847 ± 0.0058 | 1.04 ± 0.044 | 1.14 ± 0.029 | 1.19 ± 0.046 | 1.09 ± 0.091 | 1.14 ± 0.046 | 1.18 ± 0.065 | 1.09 ± 0.086 | 0.992 ± 0.013
SIHA CERVIX | 1.08 ± 0.026 | 0.979 ± 0.052 | 1.08 ± 0.02 | 1.05 ± 0.055 | 1.07 ± 0.055 | 1.08 ± 0.085 | 0.983 ± 0.055 | 0.988 ± 0.11 | 0.945 ± 0.075 | 0.972 ± 0.043 | 1.07 ± 0.055 | 1.07 ± 0.051 | 0.908 ± 0.063 | 0.905 ± 0.098 | 0.776 ± 0.027 | 0.818 ± 0.013
SUM159 BREAST | 1.1 ± 0.024 | 1.079 ± 0.0093 | 1.09 ± 0.023 | 1.06 ± 0.017 | 1.05 ± 0.012 | 1.028 ± 0.004 | 1.03 ± 0.015 | 0.9957 ± 0.0076 | 1.14 ± 0.3 | 1.1 ± 0.2 | 1.18 ± 0.36 | 1.14 ± 0.26 | 1.12 ± 0.26 | 1.13 ± 0.23 | 1.11 ± 0.21 | 1.18 ± 0.3
HOS BONE | 1.01 ± 0.039 | 1.02 ± 0.018 | 1.03 ± 0.031 | 0.995 ± 0.011 | 1.06 ± 0.015 | 1.02 ± 0.015 | 0.8753 ± 0.0038 | 0.731 ± 0.029 | 0.99 ± 0.019 | 1.01 ± 0.013 | 0.9947 ± 0.0083 | 1.03 ± 0.022 | 0.9823 ± 0.005 | 1.01 ± 0.015 | 0.9423 ± 0.0071 | 0.927 ± 0.025
LM7 BONE | 0.939 ± 0.025 | 1 ± 0.035 | 1.05 ± 0.05 | 0.983 ± 0.061 | 0.939 ± 0.027 | 0.91 ± 0.042 | 0.749 ± 0.044 | 0.742 ± 0.048 | 0.989 ± 0.039 | 0.966 ± 0.075 | 1.08 ± 0.13 | 1.07 ± 0.069 | 1.01 ± 0.043 | 1.13 ± 0.24 | 0.869 ± 0.075 | 0.739 ± 0.11

From the supplement of paper PMC6045584
